pKd: −log10 of the molar value.
Key:
CDK2/Cyclin A2 = CDK2/Cyclin A2 (Homo sapiens, UniProt P24941); assay: Binding affinity to recombinant human full-length N-terminal GST-tagged CDK2/cyclin A2 expressed in baculovirus expression system using modified Histone H1 as substrate incubated for 1 hr by TR-FRET assay
[1] = target: Tyrosine-protein kinase ABL1 (Homo sapiens, UniProt P00519); assay: Binding affinity to recombinant human full-length N-terminal His-tagged ABL1 expressed in baculovirus expression system incubated for 1 hr by TR-FRET assay
[2] = target: Tyrosine-protein kinase JAK2 (Homo sapiens, UniProt O60674); assay: Binding affinity to recombinant N-terminal His-FLAG-GST-tagged JAK2 (unknown origin) (826 to 1132 residues) expressed in baculovirus infected Sf9 insect cells incubated for 1 hr by TR-FRET assay
[3] = target: Serine/threonine-protein kinase pim-3 (Homo sapiens, UniProt Q86V86); assay: Binding affinity to recombinant human full-length N-terminal GST-tagged PIM3 expressed in baculovirus expression system using S6K2 peptide as substrate incubated for 1 hr by TR-FRET assay
[4] = target: Serine/threonine-protein kinase Chk2 (Homo sapiens, UniProt O96017); assay: Binding affinity to recombinant full-length N-terminal His-FLAG-GST-tagged CHEK2 (unknown origin) expressed in baculovirus infected Sf9 insect cells incubated for 1 hr by TR-FRET assay
Ephrin type-A receptor 4 = Ephrin type-A receptor 4 (Homo sapiens, UniProt P54764); assay: Binding affinity to recombinant N-terminal His-FLAG-GST-tagged EPHA4 (unknown origin) (586 to 986 residues) expressed in baculovirus infected Sf9 insect cells incubated for 1 hr by TR-FRET assay
[5] = target: Serine/threonine-protein kinase MRCK gamma (Homo sapiens, UniProt Q6DT37); assay: Binding affinity to recombinant full-length N-terminal His-FLAG-GST-tagged DMPK2 (unknown origin) expressed in baculovirus infected Sf9 insect cells incubated for 1 hr by TR-FRET assay
[6] = target: MAP/microtubule affinity-regulating kinase 4 (Homo sapiens, UniProt Q96L34); assay: Binding affinity to recombinant full-length N-terminal His-FLAG-tagged MARK4 (unknown origin) expressed in baculovirus infected Sf9 insect cells incubated for 1 hr by TR-FRET assay
[7] = target: Tyrosine-protein kinase ZAP-70 (Homo sapiens, UniProt P43403); assay: Binding affinity to recombinant full-length N-terminal His-FLAG-GST-tagged ZAP70 (unknown origin) expressed in baculovirus infected Sf9 insect cells incubated for 1 hr by TR-FRET assay
Ephrin type-A receptor 3 = Ephrin type-A receptor 3 (Homo sapiens, UniProt P29320); assay: Binding affinity to recombinant N-terminal His-FLAG-GST-tagged EPHA3 (unknown origin) (579 to 983 residues) expressed in baculovirus infected Sf9 insect cells incubated for 1 hr by TR-FRET assay
[8] = target: cAMP-dependent protein kinase catalytic subunit PRKX (Homo sapiens, UniProt P51817); assay: Binding affinity to recombinant full-length N-terminal His-FLAG-GST-tagged PRKX (unknown origin) expressed in baculovirus infected Sf9 insect cells incubated for 1 hr by TR-FRET assay
Ephrin type-B receptor 2 = Ephrin type-B receptor 2 (Homo sapiens, UniProt P29323); assay: Binding affinity to recombinant N-terminal His-FLAG-GST-tagged EPHB2 (unknown origin) (581 to 986 residues) expressed in baculovirus infected Sf9 insect cells incubated for 1 hr by TR-FRET assay
[9] = target: Serine/threonine-protein kinase pim-2 (Homo sapiens, UniProt Q9P1W9); assay: Binding affinity to recombinant human full-length N-terminal GST-tagged PIM2 expressed in baculovirus expression system using S6K2 peptide as substrate incubated for 1 hr by TR-FRET assay
[10] = target: Cyclin-dependent kinase 5/CDK5 activator 1 (Homo sapiens, UniProt Q00535); assay: Binding affinity to recombinant human full-length N-terminal GST-tagged CDK5 (1 to 292 residues)/N-terminal His6-tagged p25 (99 to 307 residues) expressed in baculovirus expression system using modified histone H1 as substrate incubated for 1 hr by TR-FRET assay
Ephrin type-B receptor 4 = Ephrin type-B receptor 4 (Homo sapiens, UniProt P54760); assay: Binding affinity to recombinant N-terminal His-FLAG-GST-tagged EPHB4 (unknown origin) (577 to 987 residues) expressed in baculovirus infected Sf9 insect cells incubated for 1 hr by TR-FRET assay
[11] = target: Proto-oncogene tyrosine-protein kinase ROS (Homo sapiens, UniProt P08922); assay: Binding affinity to recombinant N-terminal His-FLAG-tagged ROS1 (unknown origin) (1883 to 2347 residues) expressed in baculovirus infected Sf9 insect cells incubated for 1 hr by TR-FRET assay
[12] = target: Tyrosine-protein kinase TXK (Homo sapiens, UniProt P42681); assay: Binding affinity to recombinant human N-terminal GST-tagged TXK (260 to 527 residues) expressed in baculovirus expression system using srctide as substrate incubated for 1 hr by TR-FRET assay
[13] = target: Serine/threonine-protein kinase SIK3 (Homo sapiens, UniProt Q9Y2K2); assay: Binding affinity to recombinant N-terminal His-FLAG-GST-tagged SIK3 (unknown origin) (59 to 365 residues) expressed in baculovirus infected Sf9 insect cells incubated for 1 hr by TR-FRET assay
Ephrin type-B receptor 6 = Ephrin type-B receptor 6 (Homo sapiens, UniProt O15197); assay: Binding affinity to recombinant N-terminal His-FLAG-GST-tagged EPHB6 (unknown origin) (683 to 1130 residues) expressed in baculovirus infected Sf9 insect cells incubated for 1 hr by TR-FRET assay
Ephrin type-A receptor 8 = Ephrin type-A receptor 8 (Homo sapiens, UniProt P29322); assay: Binding affinity to recombinant N-terminal His-FLAG-GST-tagged […] (unknown origin) (571 to 924 residues) expressed in baculovirus infected Sf9 insect cells incubated for 1 hr by TR-FRET assay
[14] = target: Mitogen-activated protein kinase 9 (Homo sapiens, UniProt P45984); assay: Binding affinity to recombinant full-length N-terminal His-FLAG-tagged MAPK9 (unknown origin) expressed in baculovirus infected Sf9 insect cells incubated for 1 hr by TR-FRET assay
[15] = target: Homeodomain-interacting protein kinase 2 (Homo sapiens, UniProt Q9H2X6); assay: Binding affinity to recombinant full-length N-terminal His-FLAG-tagged HIPK2 (unknown origin) expressed in baculovirus infected Sf9 insect cells incubated for 1 hr by TR-FRET assay

Ephrin type-A receptor 4, sequence (P54764 whole entry, the tested form may be a part): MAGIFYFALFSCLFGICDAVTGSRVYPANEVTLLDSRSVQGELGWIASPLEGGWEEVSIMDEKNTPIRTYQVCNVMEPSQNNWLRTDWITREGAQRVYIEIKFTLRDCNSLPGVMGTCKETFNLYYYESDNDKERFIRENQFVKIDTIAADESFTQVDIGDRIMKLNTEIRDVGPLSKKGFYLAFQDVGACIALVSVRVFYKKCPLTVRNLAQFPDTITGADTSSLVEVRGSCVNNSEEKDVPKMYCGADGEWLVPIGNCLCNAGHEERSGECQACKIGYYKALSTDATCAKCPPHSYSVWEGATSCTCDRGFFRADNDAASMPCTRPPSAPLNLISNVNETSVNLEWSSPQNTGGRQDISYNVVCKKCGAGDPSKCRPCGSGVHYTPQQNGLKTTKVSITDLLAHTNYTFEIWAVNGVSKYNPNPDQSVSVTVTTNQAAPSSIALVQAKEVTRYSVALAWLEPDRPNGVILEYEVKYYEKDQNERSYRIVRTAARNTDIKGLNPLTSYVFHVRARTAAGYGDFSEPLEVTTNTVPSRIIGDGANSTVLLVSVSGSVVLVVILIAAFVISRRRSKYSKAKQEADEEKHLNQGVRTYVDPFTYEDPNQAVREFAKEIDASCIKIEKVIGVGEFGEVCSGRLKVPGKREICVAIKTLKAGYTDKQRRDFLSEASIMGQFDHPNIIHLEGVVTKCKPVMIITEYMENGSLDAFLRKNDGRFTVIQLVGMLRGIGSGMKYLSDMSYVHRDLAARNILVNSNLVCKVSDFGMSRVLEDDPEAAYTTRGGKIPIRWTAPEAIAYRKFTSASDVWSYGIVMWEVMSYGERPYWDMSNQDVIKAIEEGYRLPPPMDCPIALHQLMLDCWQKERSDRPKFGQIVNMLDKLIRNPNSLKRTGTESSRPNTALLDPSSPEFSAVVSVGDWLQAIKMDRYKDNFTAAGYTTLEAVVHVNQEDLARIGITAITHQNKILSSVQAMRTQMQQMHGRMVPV
Tyrosine-protein kinase TXK, sequence (P42681 whole entry, the tested form may be a part): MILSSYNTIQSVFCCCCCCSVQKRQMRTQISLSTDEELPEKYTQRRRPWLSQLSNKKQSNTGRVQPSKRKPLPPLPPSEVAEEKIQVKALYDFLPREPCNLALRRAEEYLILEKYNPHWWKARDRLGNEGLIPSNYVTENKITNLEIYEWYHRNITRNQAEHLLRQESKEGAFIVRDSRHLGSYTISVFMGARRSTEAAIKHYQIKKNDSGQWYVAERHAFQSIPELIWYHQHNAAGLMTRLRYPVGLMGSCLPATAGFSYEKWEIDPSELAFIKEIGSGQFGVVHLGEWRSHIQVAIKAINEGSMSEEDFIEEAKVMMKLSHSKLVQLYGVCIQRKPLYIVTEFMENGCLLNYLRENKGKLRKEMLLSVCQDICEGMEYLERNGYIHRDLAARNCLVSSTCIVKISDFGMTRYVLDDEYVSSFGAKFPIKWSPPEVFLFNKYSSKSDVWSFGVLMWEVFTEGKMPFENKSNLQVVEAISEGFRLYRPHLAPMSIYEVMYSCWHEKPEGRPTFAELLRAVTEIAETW
Ephrin type-B receptor 6, sequence (O15197 whole entry, the tested form may be a part): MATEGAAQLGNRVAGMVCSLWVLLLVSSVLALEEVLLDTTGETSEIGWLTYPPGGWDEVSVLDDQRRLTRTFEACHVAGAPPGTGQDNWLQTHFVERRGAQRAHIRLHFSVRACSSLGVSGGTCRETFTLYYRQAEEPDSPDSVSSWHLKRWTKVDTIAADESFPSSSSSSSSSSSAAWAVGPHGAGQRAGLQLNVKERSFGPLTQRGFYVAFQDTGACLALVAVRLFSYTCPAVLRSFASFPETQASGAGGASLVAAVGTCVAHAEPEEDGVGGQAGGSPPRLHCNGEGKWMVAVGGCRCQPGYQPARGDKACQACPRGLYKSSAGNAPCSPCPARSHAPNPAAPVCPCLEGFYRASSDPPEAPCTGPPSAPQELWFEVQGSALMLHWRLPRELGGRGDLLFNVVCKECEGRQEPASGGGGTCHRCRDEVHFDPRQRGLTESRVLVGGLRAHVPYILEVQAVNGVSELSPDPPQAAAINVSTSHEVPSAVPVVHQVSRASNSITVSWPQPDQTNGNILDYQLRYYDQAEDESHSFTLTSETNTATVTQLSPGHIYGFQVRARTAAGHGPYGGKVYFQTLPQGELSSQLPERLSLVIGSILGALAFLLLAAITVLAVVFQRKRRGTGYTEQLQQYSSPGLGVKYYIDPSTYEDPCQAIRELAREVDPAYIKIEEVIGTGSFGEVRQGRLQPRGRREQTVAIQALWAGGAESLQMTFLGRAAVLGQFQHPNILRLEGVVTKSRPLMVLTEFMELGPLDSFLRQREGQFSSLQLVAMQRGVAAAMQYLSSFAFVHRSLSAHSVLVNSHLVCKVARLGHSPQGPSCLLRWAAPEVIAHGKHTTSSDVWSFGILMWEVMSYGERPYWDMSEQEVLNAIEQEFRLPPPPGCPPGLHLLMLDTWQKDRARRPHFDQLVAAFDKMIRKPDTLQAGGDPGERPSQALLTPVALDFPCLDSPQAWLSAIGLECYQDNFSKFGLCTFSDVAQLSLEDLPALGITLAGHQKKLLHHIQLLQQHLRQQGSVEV
Tyrosine-protein kinase ABL1, sequence (P00519 whole entry, the tested form may be a part): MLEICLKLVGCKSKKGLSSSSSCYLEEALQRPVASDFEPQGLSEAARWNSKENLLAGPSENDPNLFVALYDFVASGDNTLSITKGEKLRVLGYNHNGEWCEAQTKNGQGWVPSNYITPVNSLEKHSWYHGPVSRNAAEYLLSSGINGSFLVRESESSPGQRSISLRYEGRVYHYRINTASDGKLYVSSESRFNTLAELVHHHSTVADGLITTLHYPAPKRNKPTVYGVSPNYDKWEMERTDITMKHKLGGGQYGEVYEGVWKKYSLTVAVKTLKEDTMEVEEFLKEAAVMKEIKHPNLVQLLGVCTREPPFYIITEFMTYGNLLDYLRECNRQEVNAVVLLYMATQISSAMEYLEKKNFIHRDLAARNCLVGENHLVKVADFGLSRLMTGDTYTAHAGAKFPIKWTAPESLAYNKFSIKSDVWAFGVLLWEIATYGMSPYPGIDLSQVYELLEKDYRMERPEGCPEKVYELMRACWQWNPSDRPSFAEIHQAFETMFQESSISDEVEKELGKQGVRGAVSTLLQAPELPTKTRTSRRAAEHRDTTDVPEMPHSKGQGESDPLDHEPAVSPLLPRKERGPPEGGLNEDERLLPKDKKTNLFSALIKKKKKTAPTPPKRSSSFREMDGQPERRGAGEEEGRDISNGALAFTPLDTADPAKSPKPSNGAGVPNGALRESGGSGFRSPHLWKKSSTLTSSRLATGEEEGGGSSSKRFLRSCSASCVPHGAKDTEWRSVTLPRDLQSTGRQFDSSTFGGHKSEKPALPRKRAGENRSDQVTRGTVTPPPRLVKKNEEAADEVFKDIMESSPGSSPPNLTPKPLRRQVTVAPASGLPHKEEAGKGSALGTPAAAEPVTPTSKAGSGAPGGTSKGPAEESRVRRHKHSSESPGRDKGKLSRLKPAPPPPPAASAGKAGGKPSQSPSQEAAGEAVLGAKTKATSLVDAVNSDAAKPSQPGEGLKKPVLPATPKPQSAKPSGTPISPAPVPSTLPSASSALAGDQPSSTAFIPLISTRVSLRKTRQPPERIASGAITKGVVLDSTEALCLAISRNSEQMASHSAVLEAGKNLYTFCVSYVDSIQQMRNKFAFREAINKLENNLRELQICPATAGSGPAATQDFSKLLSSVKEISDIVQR
Serine/threonine-protein kinase SIK3, sequence (Q9Y2K2 whole entry, the tested form may be a part): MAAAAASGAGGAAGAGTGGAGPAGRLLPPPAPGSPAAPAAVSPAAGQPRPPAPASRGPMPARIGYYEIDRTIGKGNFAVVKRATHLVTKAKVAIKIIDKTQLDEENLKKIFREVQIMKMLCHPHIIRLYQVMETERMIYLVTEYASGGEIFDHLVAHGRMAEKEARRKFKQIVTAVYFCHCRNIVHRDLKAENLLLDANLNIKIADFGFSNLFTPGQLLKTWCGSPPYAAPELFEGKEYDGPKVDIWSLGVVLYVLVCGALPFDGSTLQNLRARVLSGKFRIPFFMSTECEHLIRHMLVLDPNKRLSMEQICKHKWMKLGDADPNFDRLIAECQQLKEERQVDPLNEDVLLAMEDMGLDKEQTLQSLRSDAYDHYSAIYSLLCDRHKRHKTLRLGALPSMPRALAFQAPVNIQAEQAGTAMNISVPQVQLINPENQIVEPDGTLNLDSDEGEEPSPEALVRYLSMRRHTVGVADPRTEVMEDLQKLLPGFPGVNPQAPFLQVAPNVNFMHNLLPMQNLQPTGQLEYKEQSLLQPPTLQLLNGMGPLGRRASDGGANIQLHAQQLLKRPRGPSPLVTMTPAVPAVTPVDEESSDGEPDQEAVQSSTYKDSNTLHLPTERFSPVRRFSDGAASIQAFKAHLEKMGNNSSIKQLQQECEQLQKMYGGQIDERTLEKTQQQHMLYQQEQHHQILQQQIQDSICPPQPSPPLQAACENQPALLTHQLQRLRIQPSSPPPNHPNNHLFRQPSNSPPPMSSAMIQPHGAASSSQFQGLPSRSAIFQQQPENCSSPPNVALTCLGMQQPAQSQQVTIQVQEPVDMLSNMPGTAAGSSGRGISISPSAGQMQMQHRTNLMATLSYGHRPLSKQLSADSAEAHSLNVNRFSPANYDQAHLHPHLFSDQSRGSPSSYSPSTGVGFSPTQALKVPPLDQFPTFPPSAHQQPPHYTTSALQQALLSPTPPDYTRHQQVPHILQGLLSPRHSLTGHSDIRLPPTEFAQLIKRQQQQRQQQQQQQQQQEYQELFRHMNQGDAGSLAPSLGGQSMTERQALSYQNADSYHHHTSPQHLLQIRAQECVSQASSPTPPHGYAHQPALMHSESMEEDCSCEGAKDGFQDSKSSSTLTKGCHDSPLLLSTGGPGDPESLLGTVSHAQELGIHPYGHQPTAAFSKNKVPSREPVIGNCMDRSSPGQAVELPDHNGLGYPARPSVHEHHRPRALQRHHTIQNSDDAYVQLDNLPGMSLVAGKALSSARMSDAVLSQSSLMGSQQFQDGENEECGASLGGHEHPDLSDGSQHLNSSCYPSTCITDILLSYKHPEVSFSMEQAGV

For `CO[C@@H]1[C@H](NCCOCCOCCOCCNC(=O)CCC2=[N+]3C(=Cc4c(C)cc(C)n4[B-]3(F)F)C=C2)C[C@H]2O[C@]1(C)n1c3ccccc3c3c4c(c5c6ccccc6n2c5c31)C(=O)NC4`, the pKd (CDK2/Cyclin A2) was 7.03, the pKd [1] was 6.04 and the pKd [2] was 7.85. It also gave a pKd [3] of 8.40, a pKd [4] of 6.83 and a pKd (Ephrin type-A receptor 4) of 5.96. It also gave a pKd [5] of 8.15, a pKd [6] of 8.22 and a pKd [7] of 6.96. For the same molecule, the pKd (Ephrin type-A receptor 3) was 6.13, the pKd [8] was 7.37 and the pKd (Ephrin type-B receptor 2) was 6.01. The pKd [9] was 7.82, the pKd [10] was 7.06 and the pKd (Ephrin type-B receptor 4) was 5.74. For the same molecule, the pKd [11] was 6.62, the pKd [12] was 6.00 and the pKd [13] was 8.00. The pKd (Ephrin type-B receptor 6) was 6.24 and the pKd (Ephrin type-A receptor 8) was 5.81.

`CO[C@@H]1[C@H](N(C)CCOCCOCCOCCNC(=O)CCC2=[N+]3C(=Cc4c(C)cc(C)n4[B-]3(F)F)C=C2)C[C@H]2O[C@]1(C)n1c3ccccc3c3c4c(c5c6ccccc6n2c5c31)C(=O)NC4` showed a pKd [14] of 6.13 and a pKd [15] of 6.25.
